Consider 2 compounds from ChEMBL document CHEMBL4842340, “Development of Cagrilintide, a Long-Acting Amylin Analogue” (J Med Chem, 2021).

Converted amounts (≈) assume the structure as drawn. *1 amine or outer side, *2 acyl side, *3 side chain or, on linkers, in order; H or OH if unused. Where a SMILES comes first, the peptide text is derived from it. Bridges are numbered along the chain shown (N, C = ends). The star is where a group is joined. C20 diacid = O=C(O)CCCCCCCCCCCCCCCCCCC(=O)*; γGlu = O=C(O)[C@H](CCC(=O)[*:2])N[*:1]

Series [1] has as its system Rattus norvegicus. The experiment in a line: Reduction in food intake in Sprague-Dawley rat at 30 nmol/kg, sc administered as single dose measured upto 24 hrs relative to control. It is filed as functional. Set-up: scale not given: the % may be the effect or the level left. Conditions: time hrs <=24.
For series [2], the system named is Rattus norvegicus. Description: Reduction in food intake in Sprague-Dawley rat at 30 nmol/kg, sc administered as single dose measured after 24 to 48 hrs relative to control. Conditions: time 24-48 hrs. Set-up: scale not given: the % may be the effect or the level left. Format: functional.
Series [3] in a line: Agonist activity at human AMY3R (CT+RAMP3) expressed in Hollex1 cells incubated for 3 hrs by luminescence assay. Conditions: Hollex1, 3 h. Format: cell-based.
The nature of series [4]: Agonist activity at human calcitonin receptor expressed in BHK570 cells assessed as increase in intracellular cAMP concentration incubated for 3 hrs in absence of albumin by CRE luciferase reporter gene assay. It is filed as cell-based. Conditions: BHK570, 3 h. A general note: Reporter assays use an easily measured gene product as a stand-in for the process of interest.

The species named for series [5] is Homo sapiens. The experiment in a line: Ratio of EC50 for human calcitonin receptor expressed in BHK570 cells to EC50 for human AMY3R (CT+RAMP3) expressed in Hollex1 cells. It is filed as cell-based.
Series [6] is described as follows: Agonist activity at rat AMY3R (CT+RAMP3) expressed in tk-ts13 cells assessed as increase in intracellular cAMP level incuabted for 25 mins by CRE luciferase reporter gene assay. It is filed as cell-based. Conditions: tk-ts13, 25 min.
Series [7] in a line: Agonist activity at rat calcitonin receptor expressed in BHK-13 cells assessed as increase in intracellular cAMP concentration incubated for 25 mins by CRE luciferase reporter gene assay. It is filed as cell-based. To be noted: BHK-13, 25 min.
For series [8], the species on record is Rattus norvegicus. Description: Ratio of EC50 for rat calcitonin receptor expressed in BHK-13 cells to EC50 for rat AMY3R (CT+RAMP3) expressed in tk-ts13 cells. Format: cell-based.
Series [9] in a line: Displacement of [125I]-amylin from human AMY3R (CTR+RAMP3) expressed in BHK-13 cells measured after 120 mins by scintillation proximity assay. It is filed as cell-based. In general terms: Displacement assays read how much labelled ligand stays bound in the presence of the test substance.
Series [10] can be described thus: Displacement of [125I]-calcitonin from human calcitonin receptor expressed in tk-ts 13 cells measured after 120 mins by scintillation proximity assay. It is filed as cell-based. Conditions: tk-ts13.
The species named for series [11] is Homo sapiens. Description: Ratio of IC50 for displacement of [125I]-calcitonin from human calcitonin receptor expressed in tk-ts 13 cells to IC50 for displacement of [125I]-amylin from human AMY3R (CTR+RAMP3) expressed in BHK-13 cells. It is filed as cell-based.
Series [12] in a line: Displacement of [125I]-amylin from rat AMY3R (CTR+RAMP3) expressed in BHK-13 cells measured after 120 mins by scintillation proximity assay. Format: cell-based.
Series [13] can be described thus: Displacement of [125I]-calcitonin from rat calcitonin receptor expressed in tk-ts 13 cells measured after 120 mins by scintillation proximity assay. Conditions: tk-ts13. It is filed as cell-based.
The species entered for series [14] is Rattus norvegicus. The experiment in a line: Ratio of IC50 for displacement of [125I]-calcitonin from rat calcitonin receptor expressed in tk-ts 13 cells to IC50 for displacement of [125I]-amylin from rat AMY3R (CTR+RAMP3) expressed in BHK-13 cells. Format: cell-based.
Series [15] can be described thus: Solubility of the compound in lactate at pH 3 by UPLC analysis. Format: physicochemical. Conditions: lactate buffer.
Series [16] can be described thus: Solubility of the compound in lactate at pH 4 by UPLC analysis. Format: physicochemical. To be noted: lactate buffer.
Series [17] in a line: Solubility of the compound in lactate at pH 5 by UPLC analysis. It is filed as physicochemical. To be noted: lactate buffer.
The nature of series [18]: Solubility of the compound in bis-tris propane at pH 6 by UPLC analysis. It is filed as physicochemical. Conditions: bis-tris propane buffer.
Series [19] in a line: Solubility of the compound in bis-tris propane at pH 6.5 by UPLC analysis. It is filed as physicochemical. Conditions: bis-tris propane buffer.
Series [20] can be described thus: Solubility of the compound in bis-tris propane at pH 7 by UPLC analysis. To be noted: bis-tris propane buffer. It is filed as physicochemical.
Series [21] is described as follows: Solubility of the compound in bis-tris propane at pH 7.5 by UPLC analysis. It is filed as physicochemical. Conditions: bis-tris propane buffer.
Series [22] in a line: Solubility of the compound in bis-tris propane at pH 8 by UPLC analysis. It is filed as physicochemical. Conditions: bis-tris propane buffer.
Series [23] deals with Insulin (Homo sapiens) (UniProt P01308). Description: Effect on insulin (unknown origin) amyloid fibril formation assessed as lag time in glycyl-glycine buffer at pH 4 measured after 45 hrs by thioflavin-T fluorescence assay.
Chain of Insulin (Homo sapiens) (P01308 whole entry): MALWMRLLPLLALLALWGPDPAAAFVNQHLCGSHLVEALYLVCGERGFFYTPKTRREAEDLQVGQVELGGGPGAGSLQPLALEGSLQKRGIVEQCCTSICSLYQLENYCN
Series [24] has the same target. Description: Effect on insulin (unknown origin) amyloid fibril formation assessed as peptide recovery in glycyl-glycine buffer at pH 4 measured after 45 hrs by thioflavin-T fluorescence assay relative to control. Set-up: concentration or dose not given beside the values.
For series [25], the system named is Rattus norvegicus. Description: Reduction in food intake in Sprague-Dawley rat at 3 nmol/kg, sc administered as single dose measured upto 24 hrs relative to control. It is filed as functional. Set-up: scale not given: the % may be the effect or the level left. Conditions: time hrs <=24.
Series [26] concerns Rattus norvegicus. Description: Reduction in food intake in Sprague-Dawley rat at 3 nmol/kg, sc administered as single dose measured after 24 to 48 hrs relative to control. It is filed as functional. Set-up: scale not given: the % may be the effect or the level left. Conditions: time 24-48 hrs.

The EC50 is the concentration at which the effect is half-maximal. For orientation: IC50 means the concentration needed to halve the response being measured. As a reminder, the solubility is the concentration that dissolves in the medium under given conditions.

Regarding `CC[C@H](C)[C@H](NC(=O)[C@H](CCC(=O)O)NC(=O)CNC(=O)[C@H](Cc1ccccc1)NC(=O)[C@H](CC(N)=O)NC(=O)[C@H](CC(N)=O)NC(=O)[C@H](CO)NC(=O)[C@H](CO)NC(=O)[C@H](CCCNC(=N)N)NC(=O)[C@H](Cc1cnc[nH]1)NC(=O)[C@H](CC(C)C)NC(=O)[C@H](Cc1ccccc1)NC(=O)[C@H](CCC(=O)O)NC(=O)[C@H](C)NC(=O)[C@H](CC(C)C)NC(=O)[C@H](CCCNC(=N)N)NC(=O)[C@H](CCC(N)=O)NC(=O)[C@@H](NC(=O)[C@H](C)NC(=O)[C@@H]1CSSC[C@H](NC(=O)[C@H](Cc2cnc[nH]2)NC(=O)CC[C@H](NC(=O)CCCCCCCCCCCCCCCCCCC(=O)O)C(=O)O)C(=O)N[C@@H](CC(N)=O)C(=O)N[C@@H]([C@@H](C)O)C(=O)N[C@@H](C)C(=O)N[C@@H]([C@@H](C)O)C(=O)N1)[C@@H](C)O)C(=O)N[C@@H](CC(C)C)C(=O)N[C@@H](CO)C(=O)N[C@@H](CCCNC(=N)N)C(=O)N[C@H](C(=O)N[C@@H](CC(N)=O)C(=O)N[C@H](C(=O)NCC(=O)N[C@@H](CO)C(=O)N[C@@H](CC(N)=O)C(=O)N[C@H](C(=O)N[C@@H](Cc1ccc(O)cc1)C(N)=O)[C@@H](C)O)C(C)C)[C@@H](C)O`, the results for the Activity with Rattus norvegicus [1] and with Rattus norvegicus [2] were 53% and 46%, respectively.
In the case of `CC[C@H](C)[C@H](NC(=O)[C@@H]1CCCN1C(=O)CNC(=O)[C@H](Cc1ccccc1)NC(=O)[C@H](CC(N)=O)NC(=O)[C@H](CC(N)=O)NC(=O)[C@H](CO)NC(=O)[C@H](CO)NC(=O)[C@H](Cc1cnc[nH]1)NC(=O)[C@H](Cc1cnc[nH]1)NC(=O)[C@H](CC(C)C)NC(=O)[C@H](Cc1ccccc1)NC(=O)[C@H](CCC(=O)O)NC(=O)[C@H](C)NC(=O)[C@H](CC(C)C)NC(=O)[C@H](CCCNC(=N)N)NC(=O)[C@H](CCC(N)=O)NC(=O)[C@@H](NC(=O)[C@H](C)NC(=O)[C@@H]1CSSC[C@H](NC(=O)[C@H](CCCNC(=N)N)NC(=O)CC[C@H](NC(=O)CCCCCCCCCCCCCCCCCCC(=O)O)C(=O)O)C(=O)N[C@@H](CC(N)=O)C(=O)N[C@@H]([C@@H](C)O)C(=O)N[C@@H](C)C(=O)N[C@@H]([C@@H](C)O)C(=O)N1)[C@@H](C)O)C(=O)N[C@@H](CC(C)C)C(=O)N1CCC[C@H]1C(=O)N1CCC[C@H]1C(=O)N[C@H](C(=O)N[C@@H](CC(N)=O)C(=O)N[C@H](C(=O)NCC(=O)N[C@@H](CO)C(=O)N[C@@H](CC(N)=O)C(=O)N[C@H](C(=O)N[C@@H](Cc1ccc(O)cc1)C(N)=O)[C@@H](C)O)C(C)C)[C@@H](C)O` ({C20 diacid-γGlu}-RCNTATCATQRLAEFLHHSSNNFGPILPPTNVGSNTY-NH2; disulfide 2-7), the EC50 in series [3] stood at 0.121 nM; in series [4] it was 0.107 nM; in [6] it was 0.188 nM; in series [7], 0.539 nM. In addition, the Ratio EC50 stood at 1 in the series listed under Homo sapiens [5] and 3 in the series listed under Rattus norvegicus [8]. The IC50 in series [9] came to 0.192 nM; in series [10] it was 0.039 nM; in [12], 0.029 nM; in [13] it was 0.087 nM. Also, the Ratio IC50 was found to be 0.2 in the series listed under Homo sapiens [11] and 3 in the series listed under Rattus norvegicus [14]. The solubility worked out at 200 µM (≈ 897 µg/mL) in series [15]; 200 µM (≈ 897 µg/mL) in series [16]; 200 µM (≈ 897 µg/mL) in series [17]; 200 µM (≈ 897 µg/mL) in [18]; 174 µM (≈ 780 µg/mL) in series [19]; 160 µM (≈ 717 µg/mL) in series [20]. The solubility in [21] and in [22] was 200 µM (≈ 897 µg/mL) throughout. Further, the TIME at Insulin (Homo sapiens) [23] stood at 12 h. In addition, the Activity is 26% on Insulin (Homo sapiens) [24], 56% with Rattus norvegicus [25] and 53% in the series with Rattus norvegicus [26].
